Reference: PMC9855884, “Glycosylated Lipopeptides—Synthesis and Evaluation of Antimicrobial Activity and Cytotoxicity” (Biomolecules, 2023)
In brackets after ≈: the same amount, converted by molar mass. Where a SMILES comes first, the peptide text is derived from it. The star is where a group is joined. βGlcNAc = CC(=O)N[C@@H]1[C@@H](O)[C@H](O)[C@@H](CO)O[C@H]1*; Stearoyl = CCCCCCCCCCCCCCCCCC(=O)*; Palmitoyl = CCCCCCCCCCCCCCCC(=O)*; Myristoyl = CCCCCCCCCCCCCC(=O)*

How the values were obtained:
MTT assay, cytotoxicity = format: cell-based, human; conditions: human, HaCaT keratinocytes, 24 h incubation at 37 °C, 0.5–500 μg/mL, six replicates per concentration, repeated at least twice
Protocol: To evaluate the cytotoxicity of the test peptides (IC50), the classic MTT assay on 96-well plates was performed for human keratinocytes (HaCaT) which were acquired from the ATCC. The assay was based on colorimetric determination of the cell metabolic activity where the color intensity reflected the number of live cells that could be measured spectrophotometrically. The cell line was cultured in a Dulbecco’s modified Eagle Medium (Invitrogen) supplemented with 10% fetal bovine serum (v/v), 100 units/mL of penicillin, 100 μg/mL of streptomycin, and 2 mM L-glutamine and was kept at 37 °C in a humidified 5% CO2 incubator. Briefly, a day after plating of 500 cells per well, a series of concentrations (0.5–500 μg/mL) of the test compounds were applied. DMSO was added to the control cells at a final concentration of 1.0% (v/v), which was related to the maximum concentration of the solvent compounds used in the experiment. After 24 h of incubation at 37 °C (humidified 5% CO2 incubator) with the peptides, a medium containing 1 mg/mL of MTT was added to the wells up to a final concentration of 0.5 mg/mL. Subsequently, the plates were incubated at 37 °C for 4 h. Then, the medium was aspirated, and the formazan product was solubilized with DMSO. The background absorbance at 630 nm was subtracted from that at 570 nm for each well (Epoch, BioTek Instruments, Winooski, VT, USA). Six replicates were conducted for each concentration. All experiments were repeated at least twice and the resulting IC50 values were calculated with a GraFit 7 software (v. 7.0, Erithacus, Berkley, CA, USA).
The selectivity indexes were calculated for all the strains as IC50/MIC. According to IC50, in most cases, glycosylation caused only a slight decrease in toxicity. However, in contrast with SI calculated for HC50, the differences between USCLs and gUSCLs are not so distinct. […] Moreover, toxicity of USCLs and gUSCLs is high and exceeds their antimicrobial activity. The lipopetides were not selective against Gram-negative strains (K. pneumoniae, A. baumannii, P. aeruginosa, K. aerogenes) over human cells. A few USCLs were selective (SI > 1) against E. faecium and S. aureus with SI up to 1.87; and some gUSCLs were selective against E. faecium but not against S. aureus, with SI between 0.63 and 1.73. […] In this case, SI of gUSCLs was noticeably […] than that of corresponding parent USCLs (2.07, 1.99, 2.67 vs. 2.53, 2.36, 3.46, respectively). Selectivity indexes were plotted against adjusted retention time (Figures S15–S21). A moderate linear correlation was found in USCLs and K. pneumoniae, C. glabrata, and gUSCLs and K. pneumoniae, K. aerogenes (R^2 between 0.6064 and 0.6481). A relatively high linear correlation was obtained for USCLs and K. aerogenes (R^2 of 0.8214) and also for gUSCLs and C. glabrata (R^2 of 0.9223).

[1] = system: K. pneumoniae ATCC 700603; format: cell-based, Klebsiella pneumoniae; conditions: ATCC 700603, 18 h
Protocol: (§1) The Acinetobacter baumannii ATCC BAA-1605, Enterococcus faecium ATCC 700221, Klebsiella aerogenes ATCC 13048, Klebsiella pneumoniae ATCC 700603, Pseudomonas aeruginosa ATCC 9027, Staphylococcus aureus ATCC 33591, Candida glabrata ATCC 15126, strains were acquired from the American Type Culture Collection (ATCC). All the strains were stored at −80 °C in Roti-Store cryo vials and were transferred into fresh Mueller–Hinton broth (MHB, Becton Dickinson, Warsaw, Poland) for bacteria or RPMI-1640 (Sigma-Aldrich, Steinheim, Germany) for fungi before the tests and incubated for 24 h at 37 °C. Then, the cultures were seeded on the Mueller–Hinton agar (BioMaxima, Lublin, Poland) or Sabouraud dextrose agar (SDA, BioMaxima, Lublin, Poland) plates, respectively, and incubated as just mentioned. These agar cultures were used for further microbiological assays. Cell densities for all assays were adjusted spectrophotometrically (Multiskan GO Microplate Spectrophotometer, Thermo Fisher Scientific, Vantaa, Finland) at 600 and 530 nm for bacteria and fungi, respectively.
The MICs were determined using a broth microdilution method according to the Clinical and Laboratory Standard Institute guidelines. For this purpose, initial inoculums of bacteria (5 × 10^5 CFU/mL) in MHB and yeasts (2 × 10^3 CFU/mL) in RPMI-1640 with 2% D-glucose were exposed to the ranging concentration of lipopeptides (1–512 μg/mL) and incubated at 37 °C for 18 h and 24 h, respectively. The experiments were conducted on 96-well microtiter polystyrene plates (Kartell, Italy). The growth was assessed visually after incubation and the MIC was assumed as the lowest peptide concentration at which a noticeable growth of microorganisms was inhibited. All experiments were conducted in triplicate.

A. baumannii biofilm = format: cell-based, Acinetobacter baumannii; conditions: 24 h
Protocol: as §1
(§2) The MBECs were determined as previously described, using 96-well polystyrene flat-bottom plates. For this purpose, 24 h cultures of microorganisms were diluted to obtain a final density of 5.0 × 10^5 CFU/mL and 2.0 × 10^5 CFU/mL of bacteria and fungi, respectively. Microorganisms were diluted in MHB or RPMI-1640 with 2% D-glucose (bacteria and fungi, respectively). Briefly, 100 µL of cell suspension was added into the test plates. After 24 h of incubation at 37 °C, the wells were rinsed three times with a phosphate buffer saline (PBS, pH 7.4) to remove non-adherent cells. Subsequently, 100 μL of the test compounds over the concentration range (1–512 μg/mL) were added to each well. After 24 h of incubation at 37 °C, 20 μL of a cell viability reagent was added (resazurin, 4 g/L; Sigma Aldrich, St. Louis, MO, USA). The MBEC was read after 1 h. The determined values were recorded as the lowest concentration at which the reduction of resazurin (from blue to pink) […]. All experiments were conducted in triplicate.

S. aureus biofilm = format: cell-based, Staphylococcus aureus; conditions: 24 h
Protocol: as §1, §2

C. glabrata biofilm = format: cell-based, Candida glabrata; conditions: 24 h
Protocol: as §1, §2

P. aeruginosa biofilm = format: cell-based, Pseudomonas aeruginosa; conditions: 24 h
Protocol: as §1, §2

K. pneumoniae biofilm = format: cell-based, Klebsiella pneumoniae; conditions: 24 h
Protocol: as §1, §2

CCCCCCCCCCCCCC(=O)N[C@@H](CCCNC(=N)N)C(=O)N[C@@H](CO)C(=O)N[C@@H](CCCNC(=N)N)C(N)=O [Peptide 2, C14-RSR-NH2] (Myristoyl-Arg-Ser-Arg-NH2)
IC50 at 24 h (MTT assay, cytotoxicity): 15 ± 2.05 µg/mL (≈ 23.9 µM) | MIC [1]: 512 µg/mL (≈ 817 µM)

CCCCCCCCCCCCCC(=O)N[C@@H](CCCNC(=N)N)C(=O)N[C@@H](CCCNC(=N)N)C(=O)N[C@@H](CO)C(N)=O [Peptide 3, C14-RRS-NH2] (Myristoyl-Arg-Arg-Ser-NH2)
IC50 at 24 h (MTT assay, cytotoxicity): 14.3 ± 1.96 µg/mL (≈ 22.8 µM) | MIC [1]: 512 µg/mL (≈ 817 µM)

CCCCCCCCCCCCCCCC(=O)N[C@@H](CO)C(=O)N[C@@H](CCCNC(=N)N)C(=O)N[C@@H](CCCNC(=N)N)C(N)=O [Peptide 4, C16-SRR-NH2] (Palmitoyl-Ser-Arg-Arg-NH2)
IC50 at 24 h (MTT assay, cytotoxicity): 4.02 ± 1.17 µg/mL (≈ 6.14 µM) | MIC [1]: 512 µg/mL (≈ 782 µM)

CCCCCCCCCCCCCCCC(=O)N[C@@H](CCCNC(=N)N)C(=O)N[C@@H](CO)C(=O)N[C@@H](CCCNC(=N)N)C(N)=O [Peptide 5, C16-RSR-NH2] (Palmitoyl-Arg-Ser-Arg-NH2)
IC50 at 24 h (MTT assay, cytotoxicity): 5.72 ± 2.27 µg/mL (≈ 8.73 µM) | MIC [1]: 64 µg/mL (≈ 97.7 µM)

CCCCCCCCCCCCCCCC(=O)N[C@@H](CCCNC(=N)N)C(=O)N[C@@H](CCCNC(=N)N)C(=O)N[C@@H](CO)C(N)=O [Peptide 6, C16-RRS-NH2] (Palmitoyl-Arg-Arg-Ser-NH2)
IC50 at 24 h (MTT assay, cytotoxicity): 7.84 ± 1.44 µg/mL (≈ 12 µM) | MIC [1]: 32 µg/mL (≈ 48.9 µM)

CCCCCCCCCCCCCCCCCC(=O)N[C@@H](CO)C(=O)N[C@@H](CCCNC(=N)N)C(=O)N[C@@H](CCCNC(=N)N)C(N)=O [Peptide 7, C18-SRR-NH2] (Stearoyl-Ser-Arg-Arg-NH2)
IC50 at 24 h (MTT assay, cytotoxicity): 8.28 ± 1.18 µg/mL (≈ 12.1 µM) | MBEC (A. baumannii biofilm): 512 µg/mL | MBEC (S. aureus biofilm): 512 µg/mL | MIC [1]: 16 µg/mL (≈ 23.4 µM) | MBEC (C. glabrata biofilm): 128 µg/mL | MBEC (P. aeruginosa biofilm): 512 µg/mL | MBEC (K. pneumoniae biofilm): 512 µg/mL

CCCCCCCCCCCCCCCCCC(=O)N[C@@H](CCCNC(=N)N)C(=O)N[C@@H](CO)C(=O)N[C@@H](CCCNC(=N)N)C(N)=O [Peptide 8, C18-RSR-NH2] (Stearoyl-Arg-Ser-Arg-NH2)
IC50 at 24 h (MTT assay, cytotoxicity): 7.97 ± 1.51 µg/mL (≈ 11.7 µM) | MBEC (A. baumannii biofilm): 512 µg/mL | MBEC (S. aureus biofilm): 256 µg/mL | MIC [1]: 32 µg/mL (≈ 46.9 µM) | MBEC (C. glabrata biofilm): 128 µg/mL | MBEC (P. aeruginosa biofilm): >512 µg/mL | MBEC (K. pneumoniae biofilm): 512 µg/mL

CCCCCCCCCCCCCCCCCC(=O)N[C@@H](CCCNC(=N)N)C(=O)N[C@@H](CCCNC(=N)N)C(=O)N[C@@H](CO)C(N)=O [Peptide 9, C18-RRS-NH2] (Stearoyl-Arg-Arg-Ser-NH2)
IC50 at 24 h (MTT assay, cytotoxicity): 10.7 ± 1.61 µg/mL (≈ 15.6 µM) | MBEC (A. baumannii biofilm): 512 µg/mL | MBEC (S. aureus biofilm): 256 µg/mL | MIC [1]: 16 µg/mL (≈ 23.4 µM) | MBEC (C. glabrata biofilm): 128 µg/mL | MBEC (P. aeruginosa biofilm): >512 µg/mL | MBEC (K. pneumoniae biofilm): 512 µg/mL

CCCCCCCCCCCCCC(=O)N[C@@H](CO[C@@H]1O[C@H](CO)[C@@H](O)[C@H](O)[C@H]1NC(C)=O)C(=O)N[C@@H](CCCNC(=N)N)C(=O)N[C@@H](CCCNC(=N)N)C(N)=O [Peptide 10, C14-S(GlcNAc)RR-NH2] (Myristoyl-Ser(βGlcNAc)-Arg-Arg-NH2)
IC50 at 24 h (MTT assay, cytotoxicity): 32.1 ± 6.26 µg/mL (≈ 38.7 µM) | MIC [1]: >512 µg/mL

CCCCCCCCCCCCCC(=O)N[C@@H](CCCNC(=N)N)C(=O)N[C@@H](CO[C@@H]1O[C@H](CO)[C@@H](O)[C@H](O)[C@H]1NC(C)=O)C(=O)N[C@@H](CCCNC(=N)N)C(N)=O [Peptide 11, C14-RS(GlcNAc)R-NH2] (Myristoyl-Arg-Ser(βGlcNAc)-Arg-NH2)
IC50 at 24 h (MTT assay, cytotoxicity): 25.2 ± 3.47 µg/mL (≈ 30.3 µM) | MIC [1]: >512 µg/mL

CCCCCCCCCCCCCC(=O)N[C@@H](CCCNC(=N)N)C(=O)N[C@@H](CCCNC(=N)N)C(=O)N[C@@H](CO[C@@H]1O[C@H](CO)[C@@H](O)[C@H](O)[C@H]1NC(C)=O)C(N)=O [Peptide 12, C14-RRS(GlcNAc)-NH2] (Myristoyl-Arg-Arg-Ser(βGlcNAc)-NH2)
IC50 at 24 h (MTT assay, cytotoxicity): 20.5 ± 3.05 µg/mL (≈ 24.6 µM) | MIC [1]: >512 µg/mL

CCCCCCCCCCCCCCCC(=O)N[C@@H](CO[C@@H]1O[C@H](CO)[C@@H](O)[C@H](O)[C@H]1NC(C)=O)C(=O)N[C@@H](CCCNC(=N)N)C(=O)N[C@@H](CCCNC(=N)N)C(N)=O [Peptide 13, C16-S(GlcNAc)RR-NH2] (Palmitoyl-Ser(βGlcNAc)-Arg-Arg-NH2)
IC50 at 24 h (MTT assay, cytotoxicity): 10.6 ± 2.04 µg/mL (≈ 12.4 µM) | MIC [1]: 256 µg/mL (≈ 298 µM)

CCCCCCCCCCCCCCCC(=O)N[C@@H](CCCNC(=N)N)C(=O)N[C@@H](CO[C@@H]1O[C@H](CO)[C@@H](O)[C@H](O)[C@H]1NC(C)=O)C(=O)N[C@@H](CCCNC(=N)N)C(N)=O [Peptide 14, C16-RS(GlcNAc)R-NH2] (Palmitoyl-Arg-Ser(βGlcNAc)-Arg-NH2)
IC50 at 24 h (MTT assay, cytotoxicity): 14.1 ± 3.48 µg/mL (≈ 16.4 µM) | MIC [1]: 128 µg/mL (≈ 149 µM)

CCCCCCCCCCCCCCCC(=O)N[C@@H](CCCNC(=N)N)C(=O)N[C@@H](CCCNC(=N)N)C(=O)N[C@@H](CO[C@@H]1O[C@H](CO)[C@@H](O)[C@H](O)[C@H]1NC(C)=O)C(N)=O [Peptide 15, C16-RRS(GlcNAc)-NH2] (Palmitoyl-Arg-Arg-Ser(βGlcNAc)-NH2)
IC50 at 24 h (MTT assay, cytotoxicity): 5.16 ± 1.32 µg/mL (≈ 6.01 µM) | MIC [1]: 256 µg/mL (≈ 298 µM)
